Measured values as given in PubChem BioAssay AID1918937 (Molecular Pharmacology Branch, DTP, NCI, 2023).

Test system: 521955-158-R2-J5-PDC complex spheroid viability
Assay: Anticancer human tumor 521955-158-R2-J5-PDC patient-derived pancreatic carcinoma cell line growth inhibition
Conditions: for IC50: curve of first compound; for viability, T/C: stronger effect = lower value
How it was run: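 Drug combinations with the LSD1 inhibitor iadademstat tested on tumor cells co-cultured as spheroids with endothelial cells and mesenchymal stem cells. Concentrations descended in half-log increments from clinical Cmax or 10 microM.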

[1] = second compound 0.1 µM, first compound 0.0316 µM
[2] = second compound 0.1 µM, first compound 0.1 µM
[3] = second compound 0.1 µM, first compound 0.316 µM
[4] = second compound 0.1 µM, first compound 1 µM
[5] = second compound 0.1 µM, first compound 3.16 µM
[6] = second compound 0.1 µM, first compound 10 µM
[7] = second compound 0.316 µM, first compound 0.0316 µM
[8] = second compound 0.316 µM, first compound 0.1 µM
[9] = second compound 0.316 µM, first compound 0.316 µM
[10] = second compound 0.316 µM, first compound 1 µM
[11] = second compound 0.316 µM, first compound 3.16 µM
[12] = second compound 0.316 µM, first compound 10 µM
[13] = second compound 1 µM, first compound 0.0316 µM
[14] = second compound 1 µM, first compound 0.1 µM
[15] = second compound 1 µM, first compound 0.316 µM
[16] = second compound 1 µM, first compound 1 µM
[17] = second compound 1 µM, first compound 3.16 µM
[18] = second compound 1 µM, first compound 10 µM
[19] = second compound 3.16 µM, first compound 0.0316 µM
[20] = second compound 3.16 µM, first compound 0.1 µM
[21] = second compound 3.16 µM, first compound 0.316 µM
[22] = second compound 3.16 µM, first compound 1 µM
[23] = second compound 3.16 µM, first compound 3.16 µM
[24] = second compound 3.16 µM, first compound 10 µM
[25] = second compound 10 µM, first compound 0.0316 µM
[26] = second compound 10 µM, first compound 0.1 µM
[27] = second compound 10 µM, first compound 0.316 µM
[28] = second compound 10 µM, first compound 1 µM
[29] = second compound 10 µM, first compound 3.16 µM
[30] = second compound 10 µM, first compound 10 µM
[31] = second compound 0.1 µM, first compound 0.00949 µM
[32] = second compound 0.1 µM, first compound 0.03 µM
[33] = second compound 0.1 µM, first compound 0.0949 µM
[34] = second compound 0.1 µM, first compound 0.3 µM
[35] = second compound 0.316 µM, first compound 0.00949 µM
[36] = second compound 0.316 µM, first compound 0.03 µM
[37] = second compound 0.316 µM, first compound 0.0949 µM
[38] = second compound 0.316 µM, first compound 0.3 µM
[39] = second compound 1 µM, first compound 0.00949 µM
[40] = second compound 1 µM, first compound 0.03 µM
[41] = second compound 1 µM, first compound 0.0949 µM
[42] = second compound 1 µM, first compound 0.3 µM
[43] = second compound 3.16 µM, first compound 0.00949 µM
[44] = second compound 3.16 µM, first compound 0.03 µM
[45] = second compound 3.16 µM, first compound 0.0949 µM
[46] = second compound 3.16 µM, first compound 0.3 µM
[47] = second compound 10 µM, first compound 0.00949 µM
[48] = second compound 10 µM, first compound 0.03 µM
[49] = second compound 10 µM, first compound 0.0949 µM
[50] = second compound 10 µM, first compound 0.3 µM
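Further: spheroids exposed to agents for seven days.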
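Wherever viability, T/C is given: percent of DMSO vehicle control luminescence viability.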

CC1(C)CCC(CN2CCN(c3ccc(C(=O)NS(=O)(=O)c4ccc(NCC5CCOCC5)c([N+](=O)[O-])c4)c(Oc4cnc5[nH]ccc5c4)c3)CC2)=C(c2ccc(Cl)cc2)C1 + NC1CC1c1ccc(-c2cccc(O)c2)cc1
IC50 (second compound 0.1 µM): 3980 nM
IC50 (second compound 0.316 µM): 3860 nM
IC50 (second compound 1 µM): 3900 nM
IC50 (second compound 3.16 µM): 4070 nM
IC50 (second compound 10 µM): 3860 nM
viability, T/C [1]: 93.2%
viability, T/C [2]: 86%
viability, T/C [3]: 95.6%
viability, T/C [4]: 92.8%
viability, T/C [5]: 62.4%
viability, T/C [6]: 0.69%
viability, T/C [7]: 81.4%
viability, T/C [8]: 93.3%
viability, T/C [9]: 91.6%
viability, T/C [10]: 84.6%
viability, T/C [11]: 60.4%
viability, T/C [12]: 1.04%
viability, T/C [13]: 82%
viability, T/C [14]: 92.6%
viability, T/C [15]: 96.4%
viability, T/C [16]: 86.9%
viability, T/C [17]: 61%
viability, T/C [18]: 0.96%
viability, T/C [19]: 87.9%
viability, T/C [20]: 89.4%
viability, T/C [21]: 99.4%
viability, T/C [22]: 90.2%
viability, T/C [23]: 63.7%
viability, T/C [24]: 1.07%
viability, T/C [25]: 98.4%
viability, T/C [26]: 103%
viability, T/C [27]: 107%
viability, T/C [28]: 86.6%
viability, T/C [29]: 61.2%
viability, T/C [30]: 0.78%

CC1COCCN1c1cc(C2(S(C)(=N)=O)CC2)nc(-c2ccnc3[nH]ccc23)n1 (stereo not given) + NC1CC1c1ccc(-c2cccc(O)c2)cc1
IC50 (second compound 0.1 µM): 564 nM
IC50 (second compound 0.316 µM): 543 nM
IC50 (second compound 1 µM): 666 nM
IC50 (second compound 3.16 µM): 587 nM
IC50 (second compound 10 µM): 567 nM
viability, T/C [1]: 82.3%
viability, T/C [2]: 93.9%
viability, T/C [3]: 77.7%
viability, T/C [4]: 22.6%
viability, T/C [5]: 15.7%
viability, T/C [6]: 20.8%
viability, T/C [7]: 84%
viability, T/C [8]: 86.3%
viability, T/C [9]: 74.5%
viability, T/C [10]: 22.4%
viability, T/C [11]: 15.2%
viability, T/C [12]: 20.4%
viability, T/C [13]: 83%
viability, T/C [14]: 90.8%
viability, T/C [15]: 87.6%
viability, T/C [16]: 29.7%
viability, T/C [17]: 15.9%
viability, T/C [18]: 16.8%
viability, T/C [19]: 81%
viability, T/C [20]: 80.2%
viability, T/C [21]: 78.5%
viability, T/C [22]: 25.5%
viability, T/C [23]: 14.9%
viability, T/C [24]: 15.3%
viability, T/C [25]: 88.8%
viability, T/C [26]: 102%
viability, T/C [27]: 69.8%
viability, T/C [28]: 30.7%
viability, T/C [29]: 14.9%
viability, T/C [30]: 17.6%

CCN(c1cc(-c2ccc(CN3CCOCC3)cc2)cc(C(=O)NCc2c(C)cc(C)[nH]c2=O)c1C)C1CCOCC1 + NC1CC1c1ccc(-c2cccc(O)c2)cc1
IC50 (second compound 0.1 µM): > 3000 nM
IC50 (second compound 0.316 µM): > 3000 nM
IC50 (second compound 1 µM): > 3000 nM
IC50 (second compound 3.16 µM): > 3000 nM
IC50 (second compound 10 µM): > 3000 nM
viability, T/C [31]: 98.8%
viability, T/C [32]: 96.3%
viability, T/C [33]: 87.4%
viability, T/C [34]: 82.1%
viability, T/C (second compound 0.1 µM, first compound 0.949 µM): 86.8%
viability, T/C (second compound 0.1 µM, first compound 3 µM): 72.3%
viability, T/C [35]: 89%
viability, T/C [36]: 85.2%
viability, T/C [37]: 82.4%
viability, T/C [38]: 82.2%
viability, T/C (second compound 0.316 µM, first compound 0.949 µM): 82.2%
viability, T/C (second compound 0.316 µM, first compound 3 µM): 77.5%
viability, T/C [39]: 75.5%
viability, T/C [40]: 88.3%
viability, T/C [41]: 88.4%
viability, T/C [42]: 87.1%
viability, T/C (second compound 1 µM, first compound 0.949 µM): 79.8%
viability, T/C (second compound 1 µM, first compound 3 µM): 85.7%
viability, T/C [43]: 91.2%
viability, T/C [44]: 91.6%
viability, T/C [45]: 92.4%
viability, T/C [46]: 83.9%
viability, T/C (second compound 3.16 µM, first compound 0.949 µM): 70.9%
viability, T/C (second compound 3.16 µM, first compound 3 µM): 77.7%
viability, T/C [47]: 83.4%
viability, T/C [48]: 110%
viability, T/C [49]: 92.2%
viability, T/C [50]: 82.7%
viability, T/C (second compound 10 µM, first compound 0.949 µM): 80.3%
viability, T/C (second compound 10 µM, first compound 3 µM): 76.7%

Cn1ncnc1C1c2n[nH]c(=O)c3cc(F)cc(c23)NC1c1ccc(F)cc1 (stereo not given) + NC1CC1c1ccc(-c2cccc(O)c2)cc1
IC50 (second compound 0.1 µM): > 100 nM
IC50 (second compound 0.316 µM): > 100 nM
IC50 (second compound 1 µM): > 100 nM
IC50 (second compound 3.16 µM): > 100 nM
IC50 (second compound 10 µM): > 100 nM
viability, T/C (second compound 0.1 µM, first compound 0.000316 µM): 91.4%
viability, T/C (second compound 0.1 µM, first compound 0.001 µM): 89.3%
viability, T/C (second compound 0.1 µM, first compound 0.00316 µM): 92.2%
viability, T/C (second compound 0.1 µM, first compound 0.01 µM): 80.4%
viability, T/C [1]: 77.3%
viability, T/C [2]: 76.2%
viability, T/C (second compound 0.316 µM, first compound 0.000316 µM): 91.5%
viability, T/C (second compound 0.316 µM, first compound 0.001 µM): 100%
viability, T/C (second compound 0.316 µM, first compound 0.00316 µM): 92.9%
viability, T/C (second compound 0.316 µM, first compound 0.01 µM): 88.8%
viability, T/C [7]: 83%
viability, T/C [8]: 78.9%
viability, T/C (second compound 1 µM, first compound 0.000316 µM): 82%
viability, T/C (second compound 1 µM, first compound 0.001 µM): 83.8%
viability, T/C (second compound 1 µM, first compound 0.00316 µM): 93.1%
viability, T/C (second compound 1 µM, first compound 0.01 µM): 91.8%
viability, T/C [13]: 94.9%
viability, T/C [14]: 81.1%
viability, T/C (second compound 3.16 µM, first compound 0.000316 µM): 94.9%
viability, T/C (second compound 3.16 µM, first compound 0.001 µM): 103%
viability, T/C (second compound 3.16 µM, first compound 0.00316 µM): 101%
viability, T/C (second compound 3.16 µM, first compound 0.01 µM): 95%
viability, T/C [19]: 89%
viability, T/C [20]: 84.5%
viability, T/C (second compound 10 µM, first compound 0.000316 µM): 97.8%
viability, T/C (second compound 10 µM, first compound 0.001 µM): 96.1%
viability, T/C (second compound 10 µM, first compound 0.00316 µM): 108%
viability, T/C (second compound 10 µM, first compound 0.01 µM): 94.4%
viability, T/C [25]: 90.2%
viability, T/C [26]: 87.7%

Nc1ncn(C2CC(O)C(CO)S2)c(=O)n1 (stereo not given) + NC1CC1c1ccc(-c2cccc(O)c2)cc1
IC50 (second compound 0.1 µM): > 300 nM
IC50 (second compound 0.316 µM): > 300 nM
IC50 (second compound 1 µM): > 300 nM
IC50 (second compound 3.16 µM): > 300 nM
IC50 (second compound 10 µM): > 300 nM
viability, T/C (second compound 0.1 µM, first compound 0.000949 µM): 90.7%
viability, T/C (second compound 0.1 µM, first compound 0.003 µM): 96.2%
viability, T/C [31]: 90.1%
viability, T/C [32]: 98%
viability, T/C [33]: 85.2%
viability, T/C [34]: 64.7%
viability, T/C (second compound 0.316 µM, first compound 0.000949 µM): 98.7%
viability, T/C (second compound 0.316 µM, first compound 0.003 µM): 94.3%
viability, T/C [35]: 93.1%
viability, T/C [36]: 89.5%
viability, T/C [37]: 76.6%
viability, T/C [38]: 69.2%
viability, T/C (second compound 1 µM, first compound 0.000949 µM): 98.4%
viability, T/C (second compound 1 µM, first compound 0.003 µM): 90%
viability, T/C [39]: 94%
viability, T/C [40]: 88.8%
viability, T/C [41]: 90%
viability, T/C [42]: 75.3%
viability, T/C (second compound 3.16 µM, first compound 0.000949 µM): 98.5%
viability, T/C (second compound 3.16 µM, first compound 0.003 µM): 101%
viability, T/C [43]: 92.7%
viability, T/C [44]: 91%
viability, T/C [45]: 87.6%
viability, T/C [46]: 69.9%
viability, T/C (second compound 10 µM, first compound 0.000949 µM): 99%
viability, T/C (second compound 10 µM, first compound 0.003 µM): 105%
viability, T/C [47]: 100%
viability, T/C [48]: 97.3%
viability, T/C [49]: 90.3%
viability, T/C [50]: 71.8%
